Results on four compounds are retold here after ChEMBL document CHEMBL1201862, “PubChem BioAssay data set” (2004).

Molecules are shown by their SMILES.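 Growth conditions: 96-well plates. Treatment: test compound, 48 hours, 5 concentrations. Analysis: linear interpolation between bracketing concentrations; unreached endpoints set to highest concentration. The concentration for 50% growth inhibition is given as GI50.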 Activity calls are given as the source filed them. Cut-off read from the data, not from the text of the source: active = GI50 up to about 1.1 µM and inactive = higher.

Among the test systems are DU-145; SNB-75; Hs-578T; PC-3; RPMI-8226; A549; T47D; HL-60; SF-539; HCC 2998; TK-10; MCF7; UO-31; U-251; SK-OV-3; SF-295; NCI-H522; OVCAR-5; EKVX.
What all share (assay): growth of human tumour cells (NCI), 48 h

In the case of `CC(C)(CCC(C)(C)N1OC1c1ccccc1)N1OC1c1ccccc1` (stereo unspecified), the GI50 was 88.7 µM (inactive) with DU-145; > 100 µM (inactive) in the assay on SNB-75; 36.2 µM (inactive) with Hs-578T; 19.9 µM (inactive) in the assay with PC-3; 28.9 µM (inactive) in the assay on RPMI-8226; 11.6 µM (inactive) in the assay on A549. The GI50 in the assay with T47D was 41.1 µM (inactive); with HL-60, 21 µM (inactive); in the assay with SF-539 it was 22.4 µM (inactive); with HCC 2998, 31.9 µM (inactive); in the assay on TK-10, 22.8 µM (inactive); in the assay with MCF7 it was 28.7 µM (inactive). Further, the GI50 in the assay with UO-31 is 20 µM (inactive); in the assay on U-251, 72.9 µM (inactive); in the assay on SK-OV-3 it was 62.8 µM (inactive); in the assay with SF-295, 44.5 µM (inactive); with NCI-H522 it was 7.16 µM (inactive).
Consider `Cc1cccc(-c2cc(O)c3c(C)ccnc3n2)c1`, for which the GI50 in the assay with DU-145 is 1.05 µM (active); in the assay on SNB-75, 0.36 µM (active); in the assay with Hs-578T it was 0.356 µM (active); in the assay with PC-3, 0.371 µM (active); in the assay with RPMI-8226, 0.468 µM (active); in the assay on A549, 0.71 µM (active). The GI50 with T47D was 0.826 µM (active); in the assay with OVCAR-5 it was 1.19 µM (inactive); with HL-60, 0.166 µM (active); with SF-539 it was 0.456 µM (active); in the assay with EKVX, 0.935 µM (active); in the assay on HCC 2998, 1.03 µM (active). In addition, the GI50 is > 53.1 µM (inactive) in the assay on TK-10; 0.319 µM (active) with MCF7; 0.407 µM (active) with U-251; 0.53 µM (active) in the assay with SK-OV-3; 0.346 µM (active) in the assay with SF-295; 0.247 µM (active) in the assay with NCI-H522.
Take `CC(C)CCCC(C)[C@H]1CCC2[C@@H]3CCC4Cc5nc6c(nc5C[C@]4(C)C3CC[C@@]21C)CC1CC[C@@H]2C(C[C@@H](O)[C@@]3(C)C2C[C@@H]2OC4(CCC(C)CO4)C(C)[C@@H]23)[C@@]1(C)C6` (stereo partly specified): the GI50 with DU-145, with SNB-75, in the assay on Hs-578T, in the assay on PC-3, in the assay with RPMI-8226 and with A549 was > 100 µM (inactive) each time. Moreover, the GI50 in the assay with T47D, in the assay with OVCAR-5, in the assay on HL-60, in the assay with SF-539, in the assay with EKVX and in the assay on HCC 2998 was > 100 µM (inactive) each time. The GI50 is > 100 µM (inactive) in the assay on TK-10; > 100 µM (inactive) in the assay on MCF7; > 100 µM (inactive) with U-251; 94.4 µM (inactive) in the assay on SK-OV-3; > 100 µM (inactive) in the assay with SF-295; > 100 µM (inactive) with NCI-H522.
In the case of `CC(O)CC(O)(C(F)(F)F)C(F)(F)F` (stereo unspecified), the GI50 in the assay on DU-145, in the assay on SNB-75, with Hs-578T, with PC-3, in the assay with RPMI-8226 and in the assay with A549 was > 10 µM (inactive) throughout. Besides, the GI50 in the assay with T47D, in the assay with HL-60, in the assay on SF-539, with EKVX, in the assay with HCC 2998 and in the assay with TK-10 was > 10 µM (inactive) in each case. Moreover, the GI50 in the assay on MCF7, in the assay with UO-31, with U-251, in the assay on SK-OV-3, in the assay with SF-295 and with NCI-H522 was > 10 µM (inactive) in each case.
